Measured values as given in US7101885B2, “Piperazinyl-aryloxy and piperazinyl-heteroaryloxy-n-aryl lactams” (Pfizer Inc, priority 2003, dated 2006).
Structures can show the parent of a compound that is named as a salt.

CN1CCN(c2ccccc2OC2CCN(c3ccc(C(F)(F)F)cc3)C2=O)CC1.Cl (stereo not drawn)
melting point: 137 to 162 °C

CN1CCN(c2ncccc2OC2CCN(c3ccc(Br)cc3)C2=O)CC1 (stereo not drawn) (as salt: hydrochloride) [Example 8, 1-(4-Bromo-phenyl)-3-[2-(4-methyl-piperazin-1-yl)-pyridin-3-yloxy]-pyrrolidin-2-one]
melting point: 72 to 82 °C

CN1CCN(c2ncccc2OC2CCN(c3ccc(C(C)(C)C)cc3)C2=O)CC1 (stereo not drawn) (as salt: salt) [Example 9, 1-(4-tert-Butyl-phenyl)-3-[2-(4-methyl-piperazin-1-yl)-pyridin-3-yloxy]-pyrrolidin-2-one]
melting point: 131 to 164 °C

CC(C)Oc1ccc(N2CCC(Oc3cccnc3N3CCN(C)CC3)C2=O)cc1 (stereo not drawn) (as salt: salt) [Example 15, 1-[4-(Isopropoxy)-phenyl]-3-[2-(4-methyl-piperazin-1-yl)-pyridin-3-yloxy]-pyrrolidin-2-one]
melting point: 93 to 120 °C

CN1CCN(c2ncccc2OC2CCN(c3ccc(OC(F)(F)F)cc3)C2=O)CC1 (stereo not drawn) (as salt: salt) [Example 16, 1-[4-(Trifluoromethoxy)-phenyl]-3-[2-(4-methyl-piperazin-1-yl)-pyridin-3-yloxy]-pyrrolidin-2-one]
melting point: 113 to 140 °C

CN1CCN(c2ncccc2OC2CCN(c3ccc(C4CCOCC4)cc3)C2=O)CC1 (stereo not drawn) (as salt: salt) [Example 17, 3-[2-(4-Methyl-piperazin-1-yl)-pyridin-3-yloxy]-1-[4-(tetrahydro-pyran-4-yl)-phenyl]-pyrrolidin-2-one]
melting point: 219 to 248 °C

CN1CCN(c2ncccc2OC2CCN(c3ccc(-c4ccon4)cc3)C2=O)CC1 (stereo not drawn) (as salt: salt) [Example 21, 1-[4-(3-Isoxazolyl)-phenyl]-3-[2-(4-methyl-piperazin-1-yl)-pyridin-3-yloxy]-pyrrolidin-2-one]
melting point: 220 °C

CN1CCN(c2ccccc2OC2CCN(c3ccc(N4CCCC4=O)cc3)C2=O)CC1 (stereo not drawn) [Example 3, 3-[2-(4-Methyl-piperazin-1-yl)-phenoxy]-1-(4-(2-oxo-pyrrolidin-1-yl)-phenyl)-pyrrolidin-2-one]
melting point: 164 to 180 °C

CN1CCN(c2ccccc2OC2CCCN(c3ccc(N4CCCC4=O)cc3)C2=O)CC1 (stereo not drawn) [Example 5, 3-[2-(4-Methyl-piperazin-1-yl)-phenoxy]-1-[4-(2-oxo-pyrrolidin-1-yl)-phenyl]-piperidin-2-one]
melting point: 68 to 75 °C

CN1CCN(c2ccccc2OC2CCCN(c3ccc(N4CCOC4=O)cc3)C2=O)CC1 (stereo not drawn) [Example 6, 3-[2-(4-Methyl-piperazin-1-yl)-phenoxy]-1-[4-(2-oxo-oxazolidin-3-yl)-phenyl]-piperidin-2-one]
melting point: 71 to 88 °C

CN1CCN(c2ccccc2OC2CCCN(c3ccc(C(F)(F)F)cc3)C2=O)CC1 (stereo not drawn) [Example 7, 3-[2-(4-Methyl-piperazin-1-yl)-phenoxy]-1-(4-trifluoromethyl-phenyl)-piperidin-2-one]
melting point: 81 to 110 °C

CN1CCN(c2ncccc2OC2CCN(c3ccc(N4CCCCC4=O)cc3)C2=O)CC1 (stereo not drawn) [Example 11, 1-(4-{3-[2-(4-Methyl-piperazin-1-yl)-pyridin-3-yloxy]-2-oxo-pyrrolidin-1-yl}-phenyl)-piperidin-2-one]
melting point: 111 to 149 °C
